The subject of series [1] is LAN-1 human neuroblastoma spheroid system. Briefly: In vitro chemosensitization with Adriamycin, spheroids. It counts as cell-based. The settings on record: in the presence of PFC Dispersion B. Here is the method: (§1) In the course of in vitro chemosensitization studies in the LAN-1 human neuroblastoma spheroid system, conducted substantially as described in Example 4 above except for Adriamycin as the chemotherapeutic agent, it was noted that the anti-tumor activity of the Adriamycin was inhibited by the PFC material (PFC Dispersion B). […] This was tested by dissolving in water a radio-labelled analogue of Adriamycin, C^14-Daunomycin, adding Dispersion B (or in separate experiments, the neat PFC component of Dispersion B), blending for 30 minutes, separating the PFC phase from the aqueous phase, and determining the distribution of drug between the phases. Table VIII below reports the results of the experiment and similar experiments with three other drugs. It will be noted that the more lipophilic Duanomycin preferentially partitioned into the PFC phase whereas the other, less lipophilic, drugs favored the aqueous phase. It was concluded that although the PFC may have an inhibitory effect on less lipophilic drugs, the delivery of lipophilic drugs will be enhanced by the PFC.

Series [2] concerns MCa-11 mammary carcinoma. In words: In vivo chemosensitization with cyclophosphamide. To be noted: cyclophosphamide 75 mg/kg i.p. single dose. Also noted: species or system BALB/c mice. Here is the method: The combined use of PFC dispersion (Dispersion B) and high oxygen breathing for enhancement of the anti-tumor effects of cyclophosphamide ("CYC") was investigated with respect to treatment of MCa-11 mammary carcinoma transplanted into the right hind leg of female BALB/c mice. The tumors were allowed to grow to 2 mm at which point the animals were treated as described in Table VII below, wherein the cyclophosphamide, obtained commercially, was dissolved in distilled water and injected in a volume equal to […] of body weight. Three to six animals per treatment group were used in the study. On the day of treatment and three to five times per week thereafter, the tumors were sized with vernier calipers.

Series [3] is described as follows: Distribution of drug between PFC phase and aqueous phase of Dispersion B. It counts as physicochemical. To be noted: for Drug in emulsion÷ drug in aqueous phase: Dispersion B, blending for 30 minutes. On the procedure:
as §1
The partitioning of the Vincristine between the PFC and aqueous phases of Dispersion B was first studied in comparison with Daunomycin, as reported in Table IX below, where "PFC" means the PFC phase of Dispersion B.

The nature of series [4]: Octanol:water partition coefficient.
In series [5] the test system is NB-100 neuroblastoma multicellular tumor spheroids. Briefly: In vitro chemosensitization with methotrexate, MTS. Type of series: cell-based, human. The settings on record: 5 µM MTX for 24 hours.
Series [6] relates to MCa-11 mammary carcinoma. Briefly: In vivo chemosensitization with Vincristine. Also noted: species or system BALB/c mice. The settings on record: Vincristine 1.5 mg/kg i.p. single dose, or 20 ml/kg Dispersion B i.v. with carbogen breathing, each alone.
Experimental: The MCa-11 mammary carcinoma was transplanted into the thigh of BALB/c mice and grown to a diameter of 6 mm, at which time the mice were treated. Control mice received an injection of saline, while Vincristine treatment consisted of a single dose of 1.5 mg/kg of Vincristine administered intraperitoneally. PFC treatment consisted of an i.v. injection of 20 ml/kg of Dispersion B, followed by two hours of breathing carbogen (95% 02/5% C02), and injection of saline of Vincristine as before, followed by another two hours of carbogen breathing.
Series [7] concerns P388 leukemia. The settings on record: cited from earlier work.
[8] abbreviates: 1 hour, PFC phase of Dispersion B.

Marks after values point to notes of the source that are not given here.

On to `COc1cccc2c1C(=O)c1c(O)c3c(c(O)c1C2=O)C[C@@](O)(C(=O)CO)C[C@@H]3O[C@H]1C[C@H](N)[C@H](O)[C@H](C)O1` [Adriamycin], for which the anti-tumor activity entry in series [1] is recorded as “inhibited”.
For the compound `O=P1(N(CCCl)CCCl)NCCCO1` (stereo not drawn) [Cyclophosphamide, cyclophosphamide], the “Days to grow 6 mm” value in series [2] (interpolated from the tumor growth curves) was determined as 17.8 days. The Growth delay in series [2] (relative to untreated controls) is listed as 5.3.
One may read the logP as a log measure of how a compound divides between an organic and an aqueous phase. Consider `COc1cccc2c1C(=O)c1c(O)c3c(c(O)c1C2=O)C[C@@](O)(C(C)=O)C[C@@H]3O[C@H]1C[C@H](N)[C@H](O)[C@H](C)O1` [Daunomycin], for which the “PFC/H2O (ratio of concentrations in the emulsion and the aqueous phases)” value is given as 1.23 in series [3] (setting [8]) and 3.80 in series [3] (3 hours, PFC phase of Dispersion B). Also, in series [3], the “Drug in emulsion÷ drug in aqueous phase” value is 3.77. The same compound gave a logP in series [4] of -0.102.
Take `CN(Cc1cnc2nc(N)nc(N)c2n1)c1ccc(C(=O)N[C@@H](CCC(=O)O)C(=O)O)cc1` [MTX, methotrexate]: the “Lipophilicity index (partition coefficient of the drug between octanol and water)” value amounted to 0.014. Also, the “D8, number of days required for the MTS to grow 8 units or 200 µm beyond their original diameter” value in series [5] amounted to 9.52 days. In addition, the MTS sizes in series [5] (Day 0, 1 unit=25 µm) is recorded as 9.83±0.17 microscope units. Also, in series [5] (Day 1), the MTS sizes was 9.74 microscope units. Besides, the MTS sizes in series [5] (Day 4) is recorded as 10.69 microscope units. Besides, the MTS sizes in series [5] (Day 6) was determined as 11.76 microscope units. The MTS sizes in series [5] (Day 8) was 13.93 microscope units. The MTS sizes in series [5] (Day 12) amounted to 18.93 microscope units. The MTS sizes in series [5] (Day 15) is reported as 21.83 microscope units. Also, in series [3], the “Drug in emulsion÷ drug in aqueous phase” value was 0.07.
Regarding `COCC(O)Cn1ccnc1[N+](=O)[O-]` (stereo not drawn) [Misonidazole], the “Drug in emulsion÷ drug in aqueous phase” value in series [3] was 0.04. This compound showed a logP in series [4] of -0.367.
Turning to `CC[C@]1(O)C[C@H]2CN(CCc3c([nH]c4ccccc34)[C@@](C(=O)OC)(c3cc4c(cc3OC)N(C=O)[C@H]3[C@@](O)(C(=O)OC)[C@H](OC(C)=O)[C@]5(CC)C=CCN6CC[C@]43[C@@H]65)C2)C1` [Vincristine], the “effect on tumor growth” value in series [6] is listed as “no effect on tumor growth”. Moreover, the “PFC/H2O (ratio of concentrations in the emulsion and the aqueous phases)” value in series [3] (setting [8]) was 2.69; in series [3] (3 hours, determined via bioassay in the LAN-1 neuroblastoma spheroid system), 9.10^c. Also, the logP in series [4] was 2.83.
`NCCCNCCSP(=O)(O)O` [WR-2721, S - 2 - (3 - aminopropylamino) ethylphosphorothioic acid]: the “Drug in emulsion÷ drug in aqueous phase” value in series [3] amounted to 0.05. Also, in series [4], the logP is -2.7.
Consider `FC(F)(F)C(F)(F)C(F)(F)C(F)(F)C(F)(F)C(F)(F)C(F)(F)C(F)(F)Br` [perfluorooctyl bromide], for which the local toxicity result in series [7] (mouse, in vivo) is given as “local toxic reactions in the peritoneal cavity were observed”. Besides, the “improvement in therapy (survival time)” value in series [7] (oxygen-saturated neat compound injected 24 hours before graded doses of whole body X-rays, versus salt solution) is “failed to show a significant improvement in therapy”.

The record behind these values is patent EP0105584B1, “Perfluorocarbon emulsions and their preparation and use in therapy” (ADAMANTECH, INC., priority 1982, dated 1984).
